Data reported in patent US20260325473A1, “N-Beta-Hydroxybutyryl-Amino Acids and Related Compositions and Methods” (The Board of Trustees of the Leland Stanford Junior …, priority 2023, published 2026).

Key:
CNDP2 = target: T1, CNDP2 (Mus musculus, UniProt Q9D1A2); assay: In vitro synthase (condensation) activity, lysates of CNDP2-transfected HEK293T cells; format: biochemical; design: expressed in transfected cells; host or cells: HEK293T (lysate); details: role: product
T1 sequence (Q9D1A2 1-475): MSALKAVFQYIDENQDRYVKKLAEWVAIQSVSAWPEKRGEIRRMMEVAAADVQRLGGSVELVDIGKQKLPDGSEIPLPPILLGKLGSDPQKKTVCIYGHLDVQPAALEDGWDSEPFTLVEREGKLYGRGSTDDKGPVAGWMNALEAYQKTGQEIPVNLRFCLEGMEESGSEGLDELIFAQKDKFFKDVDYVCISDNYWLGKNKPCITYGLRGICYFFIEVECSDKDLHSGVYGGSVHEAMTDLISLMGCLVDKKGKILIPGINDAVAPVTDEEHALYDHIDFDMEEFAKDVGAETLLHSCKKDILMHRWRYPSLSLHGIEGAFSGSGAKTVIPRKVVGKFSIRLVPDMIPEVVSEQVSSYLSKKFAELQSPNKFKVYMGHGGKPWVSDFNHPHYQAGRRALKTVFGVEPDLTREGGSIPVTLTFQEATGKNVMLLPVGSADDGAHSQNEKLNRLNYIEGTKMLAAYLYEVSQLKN
Experimental: In vitro enzyme activity assays. HEK293T cells were transfected with GFP, CNDP2 or CNDP2-E166A using PolyFect (Qiagen 301105) according to the manufacturer's instructions. The medium was changed one day post-transfection. After an additional 24 h, the cells were harvested in PBS, lysed by sonication and centrifuged (10 min at 15,000 rpm) to remove debris. Supernatant was collected and protein concentrations were adjusted. The in vitro reactions were conducted in Eppendorf tubes with 100 μL of 1 mg/mL protein and 20 mM substrates for keto amino acid synthase activity assays and. Reactions were incubated for 1 h at 37° C. and 20 μl of 1 M HCl were added to acidify the medium and to protonate keto amino acids. Reactions were vortexed and 400 μL of ethyl acetate were added to each reaction. Reactions were vortexed for 30 s to extract keto amino acids into the organic layer and centrifuged at 4° C. for 10 min at 15,000 r.p.m. A total of 300 μl from the top layer was transferred to a new Eppendorf tube and dried down under a stream of nitrogen. The residue was re-suspended in 150 μl of an 2:1:1 mixture of acetonitrile: methanol: water. The mixture was centrifuged at 4° C. for 10 min at 15,000 r.p.m. and the supernatant was transferred to a LC-MS vial.

[1] = Keto-Med study, plasma metabolites; format: in vivo; details: human; 4 weeks WFKD vs baseline
Experimental: Targeted metabolomics. Targeted measurements were performed using an Agilent 6470 triple quadrupole LC-MS instrument. MS analysis was performed using AJS in negative mode. The AJS source parameters were set as follows: the dry gas temperature was set at 250° C. with a gas flow of 12 l/min and the nebulizer pressure at 25 psi; the sheath gas temperature was set to 300° C. with the sheath gas flow set at 12 l/min; and the capillary voltage was set to 3,500 V. Separation of polar metabolites was performed as described above in the ‘Untargeted measurements of metabolites by LC-MS’ section. Multiple reaction monitoring was performed for the indicated metabolites with the listed dwell times, fragmentor voltage, collision energies, cell accelerator voltages and polarities. Quantification of the endogenous metabolite concentrations were performed by generating a standard curve with known concentrations of each metabolite. Metabolite standards were analyzed alongside the plasma samples using the same targeted triple quadrupole LC/MS method. A calibration standard curve generated from the metabolite standard concentrations and total peak areas were used to calculate the concentrations of each endogenous metabolite. The dilution of the plasma during the sample preparation was also taken into account for the quantification.
Keto-Med study. Keto-Med was a single-site, randomized, crossover, interventional trial comparing 2 metabolically distinct diets (well-formulated ketogenic diet, WFKD; and Mediterranean-plus diet, Med-Plus) among individuals with prediabetes and T2DM. Forty participants aged ≥18 years with prediabetes or T2DM followed the WFKD and the Med-Plus for 12 weeks each, in random order. Participants were randomly assigned into 1 of 2 different diet sequences: WFKD for 12 weeks (phase 1) and then the Med-Plus for 12 weeks (phase 2), or the opposite order. Ad libitum intake was advised, and participants were guided to follow 2 sets of dietary guidelines that shared 3 important similarities (incorporating nonstarchy vegetables and avoiding added sugars and refined grains) and 3 important differences (incorporating compared with avoiding legumes, fruits, and whole, intact grains). During the WFKD phase, participants were counseled to sustain nutritional ketosis by limiting carbohydrates to 20-50 g/day and keeping proteins to ~1.5 g/kg ideal body weight/day, with the remaining kcals coming from fats. Participants were also instructed to consume >3 servings/day of nonstarchy vegetables and maintain adequate mineral and fluid intake for the ketogenic state (sodium, 3-5 g/day; potassium, 3-4 g/day). […]

CC(O)CC(=O)N[C@@H](Cc1ccccc1)C(=O)O (stereo partly drawn) [BHB-Phe, N-betahydroxybutyryl-phenylalanine]
product formed with BHB and phenylalanine as only substrates (CNDP2; BHB alone with 20 mM phenylalanine): exclusive product formed
products formed from combined lactate and BHB (CNDP2; lactate and BHB at varying concentrations, phenylalanine 20 mM): simultaneous production

CC(O)CC(=O)N[C@H](C(=O)O)C(C)C (stereo partly drawn) [BHB-Val, N-betahydroxybutyryl-valine]
induction of plasma keto amino acids on WFKD [1]: Robust induction
